PubChem BioAssay (NCI)
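1) Cells in 96-well plates. 2) Compound, 48 h, 5 concentrations. 3) Linear interpolation between surrounding doses. 4) Unreached endpoint = highest concentration. TGI is the concentration that stops growth completely.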 Where a SMILES comes first, the peptide text is derived from it. The star is where a group is joined. Boc = CC(C)(C)OC(=O)*

Tests used:
Assay in all cases: NCI anticancer screen, dose series, 48 h
ACHN renal = system: ACHN renal
BT-549 breast = system: BT-549 breast
HCT-15 colon = system: HCT-15 colon
HOP-62 NSCLC = system: HOP-62 NSCLC
IGROV1 ovarian = system: IGROV1 ovarian
MCF7 breast = system: MCF7 breast
MDA-MB-231 breast = system: MDA-MB-231 breast
MDA-MB-435 = system: MDA-MB-435
MOLT-4 leukemia = system: MOLT-4 leukemia
NCI-H226 lung = system: NCI-H226 lung
NCI-H460 lung = system: NCI-H460 lung
NCI/ADR-RES ovarian = system: NCI/ADR-RES ovarian
OVCAR-3 ovarian = system: OVCAR-3 ovarian
SF-295 CNS = system: SF-295 CNS
SNB-75 CNS = system: SNB-75 CNS
T-47D breast = system: T-47D breast
TK-10 renal = system: TK-10 renal
RXF 393 renal = system: RXF 393 renal

Compound	TGI (ACHN renal) [µM]	TGI (BT-549 breast) [µM]	TGI (HCT-15 colon) [µM]	TGI (HOP-62 NSCLC) [µM]	TGI (IGROV1 ovarian) [µM]	TGI (MCF7 breast) [µM]	TGI (MDA-MB-231 breast) [µM]	TGI (MDA-MB-435) [µM]	TGI (MOLT-4 leukemia) [µM]	TGI (NCI-H226 lung) [µM]	TGI (NCI-H460 lung) [µM]	TGI (NCI/ADR-RES ovarian) [µM]	TGI (OVCAR-3 ovarian) [µM]	TGI (SF-295 CNS) [µM]	TGI (SNB-75 CNS) [µM]	TGI (T-47D breast) [µM]	TGI (TK-10 renal) [µM]	TGI (RXF 393 renal) [µM]
N#C[C@@]12CCCC(=O)[C@@H]1[C@H]1CCC[C@H]12	33.1	39.2	38.2	30.8	32.2	49.8	31.2	33.5	55.9	47.6	32.8	59.4	23.7	44.6	36	41.3	35.3	
CSc1ccc(/C=C2\N=C(c3ccccc3)N(c3nc4c(Cl)cc(Cl)cc4s3)C2=O)cc1	68.5	63.5	> 100	39.7	> 100	> 100	62.5	43.2	49.5		> 100	68.2	40	79.7	62	98.4	> 100	67.5
CN(C)CCNC(=O)c1ccc(NCCCN(C)CCCNc2ccc(C(=O)NCCN(C)C)c3[nH]c4ccc([N+](=O)[O-])cc4c(=O)c23)c2c(=O)c3cc([N+](=O)[O-])ccc3[nH]c12	1.5	2.64	1.8	1.92	0.389	0.655	0.34	0.328	0.0623		0.169	3.58	1.94		1.21	2.55	1.38	0.351
Cc1ccc(S(=O)(=O)/N=C(\[O-])C2=C(c3ccccc3)NN(C)c3nc4cccc[n+]4nc32)cc1	> 100	> 100	> 100		> 100	> 100	> 100	> 100	> 100	> 100	> 100	> 100			> 100	> 100	> 100	> 100
COc1cc(C(=O)Nc2c3ccccc3nc3ccccc23)cc(OC)c1OC	> 100	> 100	> 100	> 80.1	> 100	> 100	> 100	> 100	> 100	> 100	> 100	> 100	> 100	> 100		> 100	> 100	> 100
CC(C)CC1[C@@H](OCc2ccccc2)COS(=O)(=O)N1Cc1ccccc1 (some centres not stated)	> 100	> 100	> 100	> 100	> 100	> 100	> 100	> 100	> 100	> 100	> 100	> 100	> 100	> 100	> 100	> 100	> 100	
COc1ccc(C2SCC(=O)N2NC(=O)C(C)Oc2ccccc2Cl)cc1 (configuration not stated)	> 100	> 100	> 100		> 100	> 100	> 100	> 100	79.5	> 100	> 100	> 100		> 100	> 100	> 100	> 100	> 100
CCOC(=O)/C=C(\N=P(c1ccccc1)(c1ccccc1)c1ccccc1)C(F)(F)C(F)(F)C(F)(F)C(F)(F)C(F)(F)F	> 100	> 100	> 100	> 100	> 100	> 100	> 100	> 100	> 100		> 100	> 100	> 100	> 100	> 100	> 100	> 100	> 100
CC(C)(C)OC(=O)NC(Cc1ccc(OCc2ccccc2)cn1)C(=O)N1CCSCC1 (configuration not stated)	> 100	71.7	> 100	> 100	> 100	> 100	> 100	> 100	59.1		> 100	94.5	> 100	> 100	76.5	49.6	> 100	88.5
COc1ccccc1N=N/C(=N/NC(=O)c1ccc(C)cc1)c1ccc(N(CCC#N)CCC#N)cc1OC	55.9	97.4	> 100	> 100	> 100	63.1	79.4	> 100	49.6	> 100	> 100	> 100	> 100	> 100		96	> 100	> 100
O[C@H]1[C@H](O)[C@H](O)CN2CCC[C@@H](O)[C@H]12	> 100	> 100	> 100	> 100	> 100	> 100	> 100	> 100	> 100	> 100		> 100	> 100	> 100	> 100	> 100	> 100	> 100
Cc1ccc(/C=N/NC2=NCCN2)s1	> 100	> 100	> 100	> 100	> 100	> 100	> 100	> 100	> 100	> 100		> 100	> 100	> 100	> 100	> 100	> 100	> 100
CN[C@@H](C)[C@H](OP(=O)(O)OC1[C@@H](O)[C@H](O)C(O)[C@H](O)[C@@H]1O)c1ccccc1 (some centres not stated)	> 100	> 100	> 100	> 100	> 100	> 100	> 100	> 100	> 100	> 100	> 100	> 100	> 100	> 100	> 100	> 100	> 100	
N#CC(N=Nc1ccccc1)c1nc2ccccc2o1 (configuration not stated)	56.4	46	> 100	39	42.9	> 100	57.4	> 100	> 100	> 100	> 100	64	92.7	35.5		39.9	58.3	61.4
CC12CC3(O)OC(O1)C1(COC(=O)c4ccccc4)C3CC21OC1OC(CO)C(O)C(O)C1O (configuration not stated)	> 100	> 100	> 100	> 100	> 100	> 100	> 100	> 100	> 100	> 100	> 100	> 100	> 100	> 100		> 100	> 100	> 100
CCOCC(NC(=O)C(CC(C)C)NC(=O)OC(C)(C)C)C(N)=O (stereo not drawn) (Boc-Leu-Ser(Et)-NH2; configuration not given here)	> 100	> 100	> 100	> 100	> 100	> 100	> 100	> 100	> 100	> 100		> 100	> 100	> 100	> 100	> 100	> 100	> 100
COc1ccc(C(C#N)NCCCCCCNC(C#N)c2ccc(OC)cc2)cc1 (configuration not stated)	> 100	> 100	> 100	> 100	> 100	> 100	> 100	> 100	> 100	> 100		> 100	> 100	> 100	> 100	> 100	> 100	> 100
NC12CC3CC4C1CC1CC2C(C3)C4(N)C1	> 100	> 100	> 100	> 100	> 100	> 100	> 100	> 100	> 100	> 100	> 100	> 100	> 100	> 100		> 100	> 100	> 100
O=C(CN1CCOCC1)CC(O)(C(F)(F)F)C(F)(F)F	> 100	> 100	> 100		> 100	> 100	> 100	> 100	> 100	> 100		> 100	> 100	> 100	> 100	> 100	> 100	> 100
Cc1ccc(Nc2nc(=O)[nH]c(=O)[nH]2)cc1N=[N+]=[N-]	> 100	> 100	> 100	> 100	> 100	> 100	> 100	> 100	> 100	> 100		> 100	> 100	> 100	> 100	> 100	> 100	> 100
CC(=O)NNC(=S)/N=C/c1c(O)cc(C)oc1=O	> 100	> 100	> 100	> 100	> 100	> 100	> 100	> 100	> 100	> 100	> 100	> 100	> 100	> 100	> 100	> 100	> 100	
